These results are taken from US20210015850A1, “COMPOSITION FOR IMPROVING INTESTINAL BARRIER FUNCTION” (SUNTORY HOLDINGS LIMITED, priority 2017, published 2021).

For the test, the system named is Caco-2 cells. Nature of the test: Intestinal barrier function improvement: suppression of cytokine-induced TEER reduction in Caco-2 monolayer. Particulars: for inhibition at 10 µM: Homo sapiens, read-out: TEER reduction suppression ratio (%); for Relative value of TEER reduction suppression ratio of gallate type compound (non-gallate type compound taken as 1): 10 μM, gallate vs non-gallate in the same evaluation. It counts as cell-based, human. How it is done:
Caco-2 cells were cultured for three weeks at 37° C. in Transwell (manufactured by Millicell Corporation) using DMEM (Dulbecco's modified Eagle's medium). A medium was removed from a plate of cultured Caco-2 cells, and the well was washed 3 times with serum-free DMEM. The well was filled with the medium. Then, the transepithelial electrical resistance (TEER) of Caco-2 monolayer cells was measured by Millicell-ERS (manufactured by Millipore Corporation). Cells (TEER≥1000 Ω·cm^2) determined that a sufficient tight junction was formed were selected, and used for the next screening. Then, to test solutions (media) on both apical and basolateral membrane sides, a sample, TNFα (40 ng/mL), IL-1β (20 ng/mL), and IFNγ (10 ng/mL) were added, followed by cultivating for 48 hours. The sample was dissolved in dimethyl sulfoxide (DMSO), and the solution was then added to the test solutions. In this case, a well to which inflammatory cytokine (TNFα, IL-1β, and IFNγ) and the sample were not added was provided as normal. A well to which inflammatory cytokine was added and the sample was not added was provided as control. After the cultivation, TEER was measured again, to evaluate whether the sample suppressed the reduction (decrease) of TEER due to the inflammatory cytokine.
The TEER reduction suppression ratio (%) due to the sample was determined according to the following formula from the TEER values of the well to which the sample was added, normal, and control.
TEER reduction suppression ratio (%)−100×((TEER of well to which sample is added)−(TEER of control))/((TEER of normal)−(TEER of control))
In this evaluation system, as the TEER reduction suppression ratio (%) is higher, an intestinal barrier function improvement effect is higher.
The intestinal barrier function improvement action was evaluated by the same method (the method for evaluating intestinal barrier function improvement action described in Example 4) as that in Example 4. In Example 5, the sample was added into the test solution so that a sample concentration was set to 10 μmol/L. The TEER reduction suppression ratio (%) of the sample was obtained according to the formula from the TEER values of a well to which the sample was added, normal, and control in the same manner as in Example 4.

The mark [1] stands for this setting: Caco-2, 48 h, sample 10 μM (10 μmol/L), Example 5, Table 4.
Setting [2] is: Caco-2, sample 10 μM, TNFα 40 ng/mL, IL-1β 20 ng/mL, IFNγ 10 ng/mL, 48 hours, Table 2.
[3] abbreviates: sample 10 μM (10 μmol/L), Example 5, Table 4.

Like-named read-outs stand apart in the source and are kept apart here.

Turning to `O=C(OC[C@H]1O[C@@H](OC(=O)c2cc(O)c(O)c(O)c2)[C@H](OC(=O)c2cc(O)c(O)c(O)c2)[C@@H](OC(=O)c2cc(O)c(O)c(O)c2)[C@@H]1OC(=O)c1cc(O)c(O)c(O)c1)c1cc(O)c(O)c(O)c1` [1,2,3,4,6-penta-O-galloyl-β-D-glucose], the inhibition at 10 µM under setting [1] worked out at 64%. In the case of `O=C(OC[C@H]1O[C@@H](OC(=O)c2cc(O)c(O)c(O)c2)[C@H](OC(=O)c2cc(O)c(O)c(O)c2)[C@@H](OC(=O)c2cc(O)c(O)c(O)c2)[C@@H]1O)c1cc(O)c(O)c(O)c1` [1,2,3,6-tetra-O-galloyl-β-D-glucose], the inhibition at 10 µM under setting [1] stood at 98%. Take `O=C(OC[C@H]1O[C@@H](OC(=O)c2cc(O)c(O)c(O)c2)[C@H](OC(=O)c2cc(O)c(O)c(O)c2)[C@@H](O)[C@@H]1OC(=O)c1cc(O)c(O)c(O)c1)c1cc(O)c(O)c(O)c1` [1,2,4,6-tetra-O-galloyl-β-D-glucose]: the inhibition at 10 µM under setting [1] was found to be 80%. Turning to `O=C(OC[C@H]1O[C@@H](OC(=O)c2cc(O)c(O)c(O)c2)[C@H](O)[C@@H](O)[C@@H]1OC(=O)c1cc(O)c(O)c(O)c1)c1cc(O)c(O)c(O)c1` [1,4,6-tri-O-galloyl-β-D-glucose], the inhibition at 10 µM under setting [1] came to 56%. Same read-out and setting: in the case of `O=C(OC[C@H]1O[C@@H](O)[C@H](OC(=O)c2cc(O)c(O)c(O)c2)[C@@H](OC(=O)c2cc(O)c(O)c(O)c2)[C@@H]1OC(=O)c1cc(O)c(O)c(O)c1)c1cc(O)c(O)c(O)c1` [2,3,4,6-tetra-O-galloyl-β-D-glucose] it was 93%; in that of `O=C(O[C@@H]1COC(=O)c2cc(O)c(O)c(O)c2-c2c(cc(O)c(O)c2O)C(=O)O[C@H]1[C@@H]1OC(=O)c2cc(O)c(O)c(O)c2-c2c(O)c(O)c(O)c3c2C(=O)O[C@H]1[C@@H]3O)c1cc(O)c(O)c(O)c1` [Casuarinin], 82%. For the compound `O=C(O[C@@H]1Cc2c(O)cc(O)cc2O[C@@H]1c1ccc(O)c(O)c1)c1cc(O)c(O)c(O)c1` [Epicatechin gallate], the “Relative value of TEER reduction suppression ratio of gallate type compound (non-gallate type compound taken as 1)” value worked out at 2.5. For the same compound, the inhibition at 10 µM under setting [2] came out at 35%. `Oc1cc(O)c2c(c1)O[C@H](c1ccc(O)c(O)c1)[C@H](O)C2` [Epicatechin, reference compound]: the inhibition at 10 µM under setting [2] stood at 14%. As for `O=C(O[C@@H]1Cc2c(O)cc(O)cc2O[C@H]1c1cc(O)c(O)c(O)c1)c1cc(O)c(O)c(O)c1` [Gallocatechin gallate], the “Relative value of TEER reduction suppression ratio of gallate type compound (non-gallate type compound taken as 1)” value is 3.2. Also, the inhibition at 10 µM under setting [2] was found to be 60%.

On to `Oc1cc(O)c2c(c1)O[C@H](c1cc(O)c(O)c(O)c1)[C@@H](O)C2` [Gallocatechin, reference compound], for which the inhibition at 10 µM under setting [2] is 19%. `O=C1O[C@H]2[C@@H]3OC(=O)c4cc(O)c(O)c(O)c4-c4c(cc(O)c(O)c4O)C(=O)OC[C@H]2O[C@@H](OC(=O)c2cc(O)c(O)c(O)c2)[C@@H]3OC(=O)c2cc(O)c(O)c3c2[C@@H]2C1=CC(=O)[C@](O)(O3)C2(O)O` [Geranlin, geraniin]: the inhibition at 10 µM under setting [1] turned out to be 83%.

With `O=C1OC[C@H]2OC(O)[C@@H]3OC(=O)c4cc(O)c(O)c(O)c4-c4c(cc(O)c(O)c4O)C(=O)O[C@H]3[C@@H]2OC(=O)c2cc(O)c(O)c(O)c2-c2c1cc(O)c(O)c2O` (some centres unmarked) [Pedunculagin], under setting [1], the inhibition at 10 µM came out at 72%.

Regarding `O=C(O)c1cc(O)c(O)c(O)c1Oc1cc2c(c(O)c1O)-c1c(cc(O)c(O)c1O)C(=O)O[C@@H]1C(COC2=O)OC(O)C2OC(=O)c3cc(O)c(O)c(O)c3-c3c(cc(O)c(O)c3O)C(=O)O[C@H]21` (some centres unmarked) [Praecoxin A], the inhibition at 10 µM under setting [1] came out at 74%. In the case of `O=C(O[C@H]1COC(=O)c2cc(O)c(O)c(O)c2-c2c(cc(O)c(O)c2O)C(=O)O[C@H]1C1OC(=O)c2cc(O)c(O)c(O)c2-c2c(O)c(O)c(O)c3c2C(=O)O[C@H]1[C@@H]3c1c(O)cc(O)c2c1OC(c1ccc(O)c(O)c1)C(O)C2)c1cc(O)c(O)c(O)c1` (some centres unmarked) [Stenophyllanin A, stenophyllanin A], the “TEER reduction suppression ratio (%)” value under setting [3] stood at 96%. `O=C(O[C@H]1[C@@H]2OC(=O)c3cc(O)c(O)c(O)c3-c3c(cc(O)c(O)c3O)C(=O)OC[C@H]2OC(O)[C@@H]1OC(=O)c1cc(O)c(O)c(O)c1)c1cc(O)c(O)c(O)c1` (some centres unmarked) [Tellimagrandin I, tellimagrandin I]: the “TEER reduction suppression ratio (%)” value under setting [3] came to 65%. For the compound `O=c1c(O)c(-c2ccc(O)c(O)c2)oc2cc(O)cc(O)c12` [quercetin, reference compound], the inhibition at 10 µM under setting [1] amounted to 38%. Consider Catechin [reference compound], for which the “TEER reduction suppression ratio (%)” value (sample 10 μM, TNFα 40 ng/mL, IL-1β 20 ng/mL, IFNγ 10 ng/mL, 48 hours, Table 2) is 15%. For the compound stenophyllanin B, the “TEER reduction suppression ratio (%)” value under setting [3] stood at 126%.
